Data as given in patent publication US8298543B2, “Identification and application of antibiotic synergy” (priority 2005, dated 2012).

Key:
[1] = tested on: S. aureus engineered with murB antisense; assay type: cell-based, Staphylococcus aureus
[2] = tested on: B. anthracis murB-2 antisense strain

Cc1onc(-c2c(Cl)cccc2Cl)c1C(=O)N[C@@H]1C(=O)N2[C@@H]1SC(C)(C)[C@@H]2C(=O)O [dicloxacillin]
change of potency / sensitivity in presence of inducer [1]: increase in potency

CO/N=C(\C(=O)N[C@@H]1C(=O)N2C(C(=O)O)=C(COC(C)=O)CS[C@H]12)c1csc(N)n1 [cefotaxime]
IC50 shift (ratio of EC50 with and without xylose) [2]: 343

CO[C@@]1(NC(=O)Cc2cccs2)C(=O)N2C(C(=O)O)=C(COC(N)=O)CS[C@@H]21 [cefoxitin]
change of potency / sensitivity in presence of inducer [1]: increase in potency
